From patent US11179397B2, “Imidazopyrimidine derivatives” (Gilead Sciences, Inc., priority 2018, dated 2021)

The molecules below were run on NCI-H358 cells (assay: NCI-H358 3D tumor spheroid growth inhibition). Details: Homo sapiens, NCI-H358, 168 h, 3D spheroids, 7 days, 3D CellTiter Glo; cellular IC50 designated EC50; read-out: H358 EC50.
Type: cell-based
Excerpt: SHP-2 Cell Based Assay: […] Materials NCI-H358 cell line was purchased from [NT] number ATCC CRL-5807) (Manassas, Va.). RPMI-1640 (Catalog number 10-040-CM) was from Corning Cellgro (Manassas, Va.), Fetal Bovine Serum (FBS) (Catalog number SH30071.03) was from HyClone (Logan, Utanh), and 100× Penicillin/Streptomycin/L-Glutamine stock (Catalog no. 30-009-CI) and 384-well ULA plates (Catalog number 3830) were from Corning (Fremont, Calif.). Method […] At the day of assay, the cells were trypsinized and seeded at 1000 cells/70 μl/well in 384-well ULA plates and incubated at 37° C. incubator with 5% CO2 to allow spheroids to form. […] The plates were incubated for additional 7 days. Then 35 μl of medium from each well was removed, and replaced with 35 μl of 3D CellTiter Glo reagent from Promega. The wells were mixed by pipetting up and down with Biomek FX for 15 times to induce cell lysis and the plates were incubated at room temperature for additional 10 min to stabilize luminescent signal. The luminescence was then read by Envision. The inhibitor dose response curves were generated using normalized cellular IC50 (designated as EC50 in all FIGURES to distinguish from biochemical IC50s) by in house dose response analyses tools. The wells with DMSO vehicle were used as negative controls (0% inhibition). The % inhibition of SHP-2 compounds was calculated as: 100-[(Compound well luminescence counts/DMSO luminescence counts)×100%].

`Cc1nc(N2CCC3(CCC[C@H]3N)CC2)n2ccnc2c1-c1cnc(N)c(Cl)c1Cl` [Example 27] was tested. Which EC50 did it give?
Its EC50 is 180 nM.

For `CC1(N)CCN(c2ncc(Sc3ccnc(N)c3Cl)c3nccn23)CC1` [Example 36], which EC50 is on record?
Its EC50 is > 12500 nM.

With `C[C@@H]1OCC2(CCN(c3ncc(Sc4cc(N)ncc4C(F)(F)F)c4ncc(Cl)n34)CC2)[C@@H]1N` [Example 39] as the molecule, how does the EC50 read?
The EC50 was 570 nM.

How did the EC50 turn out when `N[C@@H]1CCCC12CCN(c1ncc(Sc3cccc4ncccc34)c3nccn13)CC2` [Example 84] was run?
Its EC50 is 240 nM.

Each molecule was assayed against SHP-2 full length protein (Homo sapiens (Human), UniProt Q06124) (assay: SHP-2 biochemical DiFMUP pseudosubstrate-fluorogenic assay). Details: 0.2 nM SHP-2, 1 μM IRS-1 activator peptide, 50 μM DiFMUP; read-out: SHP2 IC50.
Description: SHP-2 Biochemical Assay Materials Recombinant SHP-2 full length protein was generated in house. SHP-2 protein tyrosine phosphatase (PTP) domain protein (Catalog number SPR0217-20 ug), NaCl (Catalog number S6546-1L), and KCl (Catalog number 60142-500 mL) were purchased from Sigma-Aldrich (St. Louis, Mo.). IRS-1_[…](dPEG8)[…] peptide […]) was custom made by AnaSpec (Fremont, Calif.). DiFMUP substrate (Catalog number D6567), EDTA (Catalog number E177-500 mL), DTT (Catalog number P2325), and 384-well black polystyrene non-binding surface (Catalog number 3820) were purchased from Fisher Scientific (Hanover Park, Ill.). HEPES (Catalog number 15630-080) was purchased from Life Technologies (Pleasanton, Calif.), and Tween-20 (Catalog number 95059-250) was purchased from VWR (Radnor, Pa.). Method Inhibition of SHP-2 activity by small molecule inhibitors was monitored by a biochemical DiFMUP pseudosubstrate-fluorogenic assay. […] The reaction mix was added to the 384-well non-binding plate which had been pre-spotted with 1:3 serial diluted compounds from 10,000-0.005 nM, and incubated at room temperature for 90 min. DiFMUP substrate at final concentration of 50 μM was then added to the wells and incubated for additional 30 min at room temperature. The final reaction volume was 20 μl/well. […] The inhibitor dose response curves were generated using normalized IC50 regression curve fitting by in house dose response analysis tools. The wells with DMSO vehicle were used as controls (100% signal). The percent (%) control of SHP-2 compound was calculated as: (Compound well fluorescence counts/DMSO fluorescence counts)×100%.

SHP-2 full length protein, sequence (Q06124 whole entry): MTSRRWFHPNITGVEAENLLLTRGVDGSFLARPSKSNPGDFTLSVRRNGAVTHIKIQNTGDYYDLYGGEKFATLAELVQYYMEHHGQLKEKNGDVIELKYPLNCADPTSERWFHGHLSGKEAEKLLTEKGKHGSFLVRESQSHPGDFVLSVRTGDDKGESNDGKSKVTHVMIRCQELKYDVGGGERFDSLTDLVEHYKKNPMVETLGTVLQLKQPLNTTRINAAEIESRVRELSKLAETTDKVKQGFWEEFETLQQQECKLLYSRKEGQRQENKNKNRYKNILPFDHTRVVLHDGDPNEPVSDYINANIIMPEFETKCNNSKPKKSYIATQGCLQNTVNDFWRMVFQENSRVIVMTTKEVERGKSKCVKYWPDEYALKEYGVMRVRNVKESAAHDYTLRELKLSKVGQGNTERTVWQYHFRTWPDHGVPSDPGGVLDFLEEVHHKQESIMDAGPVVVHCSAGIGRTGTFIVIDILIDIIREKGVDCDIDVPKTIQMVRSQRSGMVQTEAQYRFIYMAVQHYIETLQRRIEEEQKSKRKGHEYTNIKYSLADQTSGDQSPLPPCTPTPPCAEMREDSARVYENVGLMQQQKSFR

`Cc1nc(N2CCC3(CCC[C@H]3N)CC2)n2ccnc2c1-c1cccc2cc[nH]c12` [Example 3] was tested. Which IC50 did it give?
Its IC50 is 86 nM.

How did the IC50 turn out when `Cc1nc(N2CCC3(CCC[C@H]3N)CC2)n2ccnc2c1-c1ccncc1` [Example 4, (R)-8-(7-methyl-8-(pyridin-4-yl)imidazo[1,2-c]pyrimidin-5-yl)-8-azaspiro[4.5]decan-1-amine] was run?
Its IC50 is 1800 nM.

How did the IC50 turn out when `Cc1nc(N2CCC3(CCC[C@H]3N)CC2)n2ccnc2c1-c1ccccn1` [Example 6, (R)-8-(7-methyl-8-(pyridin-2-yl)imidazo[1,2-c]pyrimidin-5-yl)-8-azaspiro[4.5]decan-1-amine] was run?
The IC50 was 5400 nM.

With `Cc1nc(N2CCC3(CCC[C@H]3N)CC2)n2ccnc2c1-c1ccccc1Cl` [Example 8, (R)-8-(8-(2-chlorophenyl)-7-methylimidazo[1,2-c]pyrimidin-5-yl)-8-azaspiro[4.5]decan-1-amine] as the molecule, how does the IC50 read?
The IC50 was 26 nM.

For `Cc1cnn(C)c1-c1c(C)nc(N2CCC3(CCC[C@H]3N)CC2)n2ccnc12` [Example 14, (R)-8-(8-(1,4-dimethyl-1H-pyrazol-5-yl)-7-methylimidazo[1,2-c]pyrimidin-5-yl)-8-azaspiro[4.5]decan-1-amine], which IC50 is on record?
Its IC50 is > 10000 nM.

How did the IC50 turn out when `Cc1nc(N2CCC3(CCC[C@H]3N)CC2)n2ccnc2c1-c1cc(N)ncc1Cl` [Example 16, (R)-8-(8-(2-amino-5-chloropyridin-4-yl)-7-methylimidazo[1,2-c]pyrimidin-5-yl)-8-azaspiro[4.5]decan-1-amine] was run?
The IC50 was 570 nM.

How did the IC50 turn out when `Cc1nc(N2CCC3(CCC[C@H]3N)CC2)n2ccnc2c1Sc1ccc(N)nc1C(F)(F)F` [Example 17, (R)-8-(8-((6-amino-2-(trifluoromethyl)pyridin-3-yl)thio)-7-methylimidazo[1,2-c]pyrimidin-5-yl)-8-azaspiro[4.5]decan-1-amine] was run?
The IC50 was 9.9 nM.

`Cc1nc(N2CCC3(CCC[C@H]3N)CC2)n2ccnc2c1-c1cccnc1C(F)(F)F` [Example 19, (R)-8-(7-methyl-8-(2-(trifluoromethyl)pyridin-3-yl)imidazo[1,2-c]pyrimidin-5-yl)-8-azaspiro[4.5]decan-1-amine] was tested. Which IC50 did it give?
The IC50 was > 10000 nM.

Which IC50 does the source give for `Cc1noc(C)c1-c1c(C)nc(N2CCC3(CCC[C@H]3N)CC2)n2ccnc12` [Example 20] here?
Its IC50 is > 10000 nM.

For `Cc1nc(N2CCC3(CCC[C@H]3N)CC2)n2ccnc2c1-c1ccccc1C(F)(F)F` [Example 21, (R)-8-(7-methyl-8-(2-(trifluoromethyl)phenyl)imidazo[1,2-c]pyrimidin-5-yl)-8-azaspiro[4.5]decan-1-amine], which IC50 is on record?
Its IC50 is > 10000 nM.

For `Cc1nc(N2CCC3(CCC[C@H]3N)CC2)n2ccnc2c1-c1cccnc1` [Example 22, (R)-8-(7-methyl-8-(pyridin-3-yl)imidazo[1,2-c]pyrimidin-5-yl)-8-azaspiro[4.5]decan-1-amine], which IC50 is on record?
Its IC50 is 1700 nM.

How did the IC50 turn out when `Cc1nc(N2CCC3(CCC[C@H]3N)CC2)n2ccnc2c1-c1ccnc(C(F)(F)F)c1` [Example 24, (R)-8-(7-methyl-8-(2-(trifluoromethyl)pyridin-4-yl)imidazo[1,2-c]pyrimidin-5-yl)-8-azaspiro[4.5]decan-1-amine] was run?
Its IC50 is > 10000 nM.

With `Cc1nc(N2CCC3(CC2)C[C@H](O)C[C@H]3N)n2ccnc2c1-c1cccc(Cl)c1Cl` [Example 34, (2S,4R)-4-amino-8-(8-(2,3-dichlorophenyl)-7-methylimidazo[1,2-c]pyrimidin-5-yl)-8-azaspiro[4.5]decan-2-ol] as the molecule, how does the IC50 read?
The IC50 was 3.3 nM.

How did the IC50 turn out when `C[C@@H]1OCC2(CCN(c3ncc(Sc4ccc(N)nc4C(F)(F)F)c4nccn34)CC2)[C@@H]1N` [Example 37, (3S,4S)-8-(8-((6-amino-2-(trifluoromethyl)pyridin-3-yl)thio)imidazo[1,2-c]pyrimidin-5-yl)-3-methyl-2-oxa-8-azaspiro[4.5]decan-4-amine] was run?
Its IC50 is 17 nM.

`CC1(CN)CCN(c2ncc(Sc3cccc(Cl)c3Cl)c3nccn23)CC1` [Example 43, (1-(8-((2,3-dichlorophenyl)thio)imidazo[1,2-c]pyrimidin-5-yl)-4-methylpiperidin-4-yl)methanamine] was tested. Which IC50 did it give?
Its IC50 is 23 nM.

With `CC1(N)CCN(c2ncc(Sc3ccccc3)c3nccn23)CC1` [Example 49, 4-methyl-1-(8-(phenylthio)imidazo[1,2-c]pyrimidin-5-yl)piperidin-4-amine] as the molecule, how does the IC50 read?
The IC50 was 7200 nM.

`Nc1cc(C(F)(F)F)c(Sc2cnc(N3CCC4(CCC[C@H]4N)CC3)n3ccnc23)cn1` [Example 50, (R)-8-(8-((6-amino-4-(trifluoromethyl)pyridin-3-yl)thio)imidazo[1,2-c]pyrimidin-5-yl)-8-azaspiro[4.5]decan-1-amine] was tested. Which IC50 did it give?
Its IC50 is 7500 nM.

For `Nc1ccc(Sc2cnc(N3CCC4(CCC[C@H]4N)CC3)n3ccnc23)c(C(F)(F)F)n1` [Example 51, (R)-8-(8-((6-amino-2-(trifluoromethyl)pyridin-3-yl)thio)imidazo[1,2-c]pyrimidin-5-yl)-8-azaspiro[4.5]decan-1-amine], which IC50 is on record?
Its IC50 is 15 nM.

For `Nc1cc(Sc2cnc(N3CCC4(CCC[C@H]4N)CC3)n3ccnc23)c(C(F)(F)F)cn1` [Example 53, (R)-8-(8-((2-amino-5-(trifluoromethyl)pyridin-4-yl)thio)imidazo[1,2-c]pyrimidin-5-yl)-8-azaspiro[4.5]decan-1-amine], which IC50 is on record?
Its IC50 is 12 nM.

`N[C@@H]1CCCC12CCN(c1ncc(Sc3cncnc3C(F)(F)F)c3nccn13)CC2` [Example 54, (R)-8-(8-((4-(trifluoromethyl)pyrimidin-5-yl)thio)imidazo[1,2-c]pyrimidin-5-yl)-8-azaspiro[4.5]decan-1-amine] was tested. Which IC50 did it give?
Its IC50 is 4800 nM.

With `NC1CCCCN(c2ncc(Sc3cccc(Cl)c3Cl)c3nccn23)C1` (stereo not shown) [Example 59, 1-(8-((2,3-dichlorophenyl)thio)imidazo[1,2-c]pyrimidin-5-yl)azepan-3-amine] as the molecule, how does the IC50 read?
Its IC50 is > 10000 nM.

With `Cc1nc(N2CCC3(CCC[C@H]3N)CC2)n2ncnc2c1-c1cccc(Cl)c1Cl` [Example 60, (R)-8-(8-(2,3-dichlorophenyl)-7-methyl-[1,2,4]triazolo[1,5-c]pyrimidin-5-yl)-8-azaspiro[4.5]decan-1-amine] as the molecule, how does the IC50 read?
The IC50 was 97 nM.

How did the IC50 turn out when `Cc1nnc2c(Sc3cccc(Cl)c3Cl)cnc(N3CCC(C)(CN)CC3)n12` [Example 64, (1-(8-((2,3-dichlorophenyl)thio)-3-methyl-[1,2,4]triazolo[4,3-c]pyrimidin-5-yl)-4-methylpiperidin-4-yl)methanamine] was run?
The IC50 was 800 nM.

Which IC50 does the source give for `Cc1nc(N2CCC3(CCC[C@H]3N)CC2)n2cnnc2c1-c1cccc(Cl)c1Cl` [Example 65, (R)-8-(8-(2,3-dichlorophenyl)-7-methyl[1,2,4]triazolo[4,3-c]pyrimidin-5-yl)-8-azaspiro[4.5]decan-1-amine] here?
The IC50 was 20 nM.

How did the IC50 turn out when `C[C@@H]1OCC2(CCN(c3ncc(Sc4nccc5ccccc45)c4nccn34)CC2)[C@@H]1N` [Example 118, (3S,4S)-8-(8-(isoquinolin-1-ylthio)imidazo[1,2-c]pyrimidin-5-yl)-3-methyl-2-oxa-8-azaspiro[4.5]decan-4-amine] was run?
The IC50 was 550 nM.

With `C[C@@H]1OCC2(CCN(c3ncc(Sc4ccnc5cc(C#N)ccc45)c4nccn34)CC2)[C@@H]1N` [Example 125, 4-((5-((3S,4S)-4-amino-3-methyl-2-oxa-8-azaspiro[4.5]decan-8-yl)imidazo[1,2-c]pyrimidin-8-yl)thio)quinoline-7-carbonitrile] as the molecule, how does the IC50 read?
Its IC50 is 51 nM.

`C[C@@H]1OCC2(CCN(c3ncc(Sc4ccnc5cc(Cl)ccc45)c4nccn34)CC2)[C@@H]1N` [Example 134, (3S,4S)-8-(8-((7-chloroquinolin-4-yl)thio)imidazo[1,2-c]pyrimidin-5-yl)-3-methyl-2-oxa-8-azaspiro[4.5]decan-4-amine] was tested. Which IC50 did it give?
The IC50 was 9 nM.
